As a reminder, the LD50 is the dose at which mortality reaches 50%. Higher therefore signals a less toxic substance.

Results on two molecules are retold here after patent US5270472A, “Alkanoyl L-carnitine amides with aminoacids and pharmaceutical compositions containing same for promoting regeneration of the nervous tissue, inhibiting neuronal degeneration, enhancing the process of learning and memory and for the treatment of coma” (Sigma-Tau Industrie Farmaceutiche Riunite S.p.A., priority 1991, dated 1993).

Counter-ions that a name gives are not always drawn.

Series [1] has as its system choline acetyltransferase (ChAT). The series is described as follows: Choline acetyltransferase (ChAT) activity in PC 12 cells. The following applies: 1 mM, 6 days. It is filed as cell-based, rat. Here is the method: (§1) Rat pheochromocytoma ((PC 12) cells were grown in RPMI 1640, supplemented with 5% heat inactivated horse serum +5% heat inactivated fetal calf serum at 37° C. in humidified incubator with 5% CO2 atmosphere and fed on alternate days. At subconfluency, cells were dislodged by vigorous shaking and reseeded at 1:1 ratio. Acetyl L-carnitine ALCAR® and ST 857 were dissolved in RPMI and added to cells at the final concentrations indicated in the various experiments.
The method described by Fonnum, F. in "A rapid radiochemical method for the determination of choline acetyltransferase". J. of Neurochem. (1975) vol. 24, 407:409 was used. Briefly, the compounds were added to the culture medium at final concentration of 1 mM.
The cells were grown for 6 days in the presence of ST 857. The medium was changed every other day. On the sixth day the cells were harvested and resuspended directly in a homogenization buffer for ChAT activity assay. Protein content was assayed on an aliquot of the cell suspensions.

The next series in a line: Tolerability, LD50. The following applies: mouse, in vivo, mice. As for the experimental part:
In mice, LD50 orally is higher than 2 g/kg; LD50 intraperitoneally is higher than 600 mg/kg.

A short description of series [2]: Tolerability, intraperitoneal or oral. It is filed as in vivo.
In a further series the test system is PC 12 cells. The series is described as follows: Neurite outgrowth experiment. It is filed as cell-based, rat. Here is the method:
The rat pheochromocytoma (PC 12) cell line was chosen as an in vitro model system for NGF-responsive neurons. PC 12 cells are a cell line derived from a tumor of rat adrenal medulla that display NGFR similar to those described for sympathetic and sensory neurons, PC 12 typically respond to NGF by elongating neurites and developing into electrically excitable cells featuring some characteristics of the post-mitotic cholinergic neuronal phenotype.
as §1
PC 12 cells were plated out into 35 mm Petri dishes at a density 2×10^5 cells/ml. On the sixth day of either ALCAR® or ST 857 treatment (1 mM), the cells were added with NGF dissolved in RPMI 1640 at a suboptimal concentration (i.e. ineffective to stimulate neurite outgrowth) of 1 ng/mL (0.037 nM). On day 5 after addition, 100-120 cells from 5-12 randomly chosen microscope fields were counted and assayed for presence of neurities. […]

The next series relates to NGFR mRNA. The series is described as follows: NGFR mRNA in HCN-1A cells. The settings on record: following ST 857 treatment. It is filed as cell-based, human. The source says: (§2) The HCN-1A cells are a non-tumoral cell line derived from human cortical neuroblasts which respond to NGF by differentiating into bipolar or multipolar neurite-bearing neurons.
The subject of another series is HCN-1A cells. The series is described as follows: Effect on cultured human cortical cell line (HCN-1A). It is filed as cell-based.
Source text: as §2
HCN-1A cells show immunoreactivity for different neurotransmitters such as GABA, glutamate, somatostatin, cholccystokinin-8 […] and VIP (vasoactive intestinal polypeptide).

[3] abbreviates: in the presence of NGF (10 ng/mL).

`CC(=O)O[C@H](CC(=O)[O-])C[N+](C)(C)C` [ACETYL L-CARNITINE, acetyl L-carnitine, reference compound]: the ChAT activity in series [1] (in the absence of NGF) amounted to 33.3 ± 4.2 nmoli ACh/mg/hour; in series [1] (setting [3]), 133.3 ± 4.4 nmoli ACh/mg/hour.
For `CC(=O)O[C@H](CC(=O)N[C@@H](CCCNC(=N)N)C(=O)O)C[N+](C)(C)C` [ST 857, L-acetyl L-carnitinamide of L-arginine chloride hydrochloride], the median lethal dose (LD50) was over 600 mg/kg in “Tolerability, LD50” (ip, intraperitoneally) and over 2000 mg/kg in “Tolerability, LD50” (po, orally). The tolerability entry in series [2] was “well tolerated”. For the same molecule, the “enhancement of the action of NGF on PC 12 cells” value with PC 12 cells (compared with ALCAR® treatment) was “enhanced by ST 857 treatment more potently than by ALCAR® treatment”. In addition, the “stimulation of neurite outgrowth (in words)” value in the series on PC 12 cells (in the absence of NGF) is “effective in stimulating neurite outgrowth, even in the absence of NGF”. The “NGFR mRNA” value with NGFR mRNA was “increased in these cells following ST 857 treatment, in a manner similar to that elicited by NGF”. Also, in the series on HCN-1A cells (1 mM), the “neurite outgrowth and cell differentiation” value was “resulted in neurite outgrowth and cell differentiation toward the neuronal phenotype”. For the same molecule, the “GABA immunoreactivity and formation of functional synapses” value with HCN-1A cells (in the presence and in the absence of NGF (10 ng/ml)) is “induced also GABA immunoreactivity in HCN-1A and formation of functional synapses”. Also, the ChAT activity was 46.6 ± 2.5 nmoli ACh/mg/hour in series [1] (in the absence of NGF) and 140.0 ± 8.9 nmoli ACh/mg/hour in series [1] (setting [3]).
